Source: patent US6194451A, “Matrix metalloproteinase inhibitors” (Pharmacia & Upjohn S.p.A., priority 1997, dated 2001)
In brackets after ≈: the same amount, converted by molar mass.

Test: Aqueous solubility
Format: physicochemical
Conditions: water, pH 7.0, 25° C.
Experimental: Further, several compounds of formula (I), in particular when R2 is hydroxy, and when R1 is hydroxymethyl, have enhanced water solubility as compared to the vast majority of MMP inhibitors of the prior art. An aqueous solubility threshold, which may vary widely but can be roughly set in the range of 1-10 mg/mL, makes systemic administration easy, and more than often is essential to good oral bioavailability.

| Structure (SMILES) | solubility [µg/mL] |
| --- | --- |
| CC(C)C[C@@H](C(=O)N1CCOCC1)[C@](O)(COC(=O)c1ccccc1)C(=O)NO [Example 22, 1-[(2R,3S)-3-Benzoyoloxymethyl-3-hydroxy-4-hydroxyamino-2-isobutylsuccinyl]morpholine] | 1900 (≈ 4.65 mM) |
| CC(=O)OC[C@](O)(C(=O)NO)[C@@H](CC(C)C)C(=O)N1CCCCC1 [Example 23, 1-[(2R,3S)-3-Acetoxymethyl-3-hydroxy-4-hydroxyamino-2-isobutylsuccinyl]piperidine] | 5000 (≈ 14.5 mM) |
| CC(C)C[C@@H](C(=O)N1CCCCC1)[C@](O)(CO)C(=O)NO [Example 24, 1-[(2R,3S)-3-Hydroxy-4-hydroxyamino-3-hydroxymethyl-2-isobutyl-succinyl]piperidine] | > 6000 |
| CC(C)C[C@@H](C(=O)N1CCOCC1)[C@](O)(COC(=O)C(C)(C)C)C(=O)NO [Example 25, 1-[(2R,3S)-3-Hydroxy-4-hydroxyamino-2-isobutyl-3-(trimethyl-acetoxy)methylsuccinyl]morpholine] | > 8000 |
